Where “and” joins values, the source holds several entries; their conditions need not be identical. Equal entries are not always repeated. Where two headings read alike, the source gives them in different places.
What was measured:
human CB-2 receptor = biological target: T1, human CB-2 receptor (Homo sapiens, UniProt P34972); assay: Binding assay, cannabinoid CB2 receptor ([3H]-CP-55,940 displacement); conditions: for inhibition at 1 µM: test concentration 1 μM (superscript b); for inhibition at 1 µM / inhibition at 0.2 µM / inhibition at 10 µM: read-out: CB2 binding percent inhibition; for inhibition at 10 µM: test concentration 10 μM (superscript c)
T1 construct: expressed in transfected cells; host or cells: SK-N-MC cells, pcDNA3 CB-2 (human), semi-purified membranes
How it was run: (§1)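 Membranes from SK-N-MC cells stably expressing human CB-1 or CB-2 were incubated 90 min at 30° C with 0.2 nM [3H]-CP-55,940 in pH 7.5 Tris buffer with fatty-acid-free BSA; 10 uM WIN 55,212 defined non-specific binding. Filter-bound counts gave IC50 by linear regression, or percent inhibition at 0.2, 1 or 10 μM.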

human CB1 receptor [1] = biological target: T2, human CB1 receptor (Homo sapiens, UniProt P21554); assay: Binding assay, cannabinoid CB1 receptor ([3H]-CP-55,940 displacement); design: expressed in transfected cells; host or cells: SK-N-MC cells, pcDNA3 CB-1 (human), semi-purified membranes; conditions: for inhibition at 1 µM: test concentration 1 μM (superscript b); for inhibition at 1 µM / inhibition at 10 µM / inhibition at 0.2 µM: read-out: CB1 binding percent inhibition; for inhibition at 0.2 µM: test concentration 0.2 μM (superscript a)
How it was run: as §1

human CB1 receptor [2] = biological target: T2, human CB1 receptor; assay: Functional cell-based assay, CB1 receptor mediated change in CRE β-gal expression (adenylate cyclase activity); design: expressed in transfected cells; host or cells: SK-NC cells [sic], pcDNA3-CRE β-gal and pcDNA3 CB-1 (human); conditions: for inhibition at 1 µM: test concentration 1 μM, where an EC50 was not obtained, read-out: CB1 functional percent inhibition
Source text: Functional Cell-Based Assay for CB1 or CB2 Agonist and Inverse Agonist Effects on Intra-Cellular Adenylate Cyclase Activity
The CB1 and CB2 receptors are G-protein coupled receptors (GPCR), which influence cell function via the Gi-protein. These receptors modulate the activity of intracellular adenylate cyclase, which in turn produces the intracellular signal messenger cyclic-AMP (cAMP).
At baseline, or during non-ligand bound conditions, these receptors are constitutively active and tonically suppress adenylate cyclase activity. The binding of an agonist causes further receptor activation and produces additional suppression of adenylate cyclase activity. The binding of an inverse agonist inhibits the constitutive activity of the receptors and results in an increase in adenylate cyclase activity.
By monitoring intracellular adenylate cyclase activity, the ability of compounds to act as agonists or inverse agonists can be determined.
Test compounds were evaluated in SK-NC cells which, using standard transfection procedures, were stably transfected with human cDNA for pcDNA3-CRE β-gal and pcDNA3 CB-1 (human) or pcDNA3 CB-2 (human). By expressing CRE β-gal, the cells produced β-galactosidase in response to CRE promoter activation by cAMP. Cells expressing CRE β-gal and either the human CB1 or CB2 receptor will produce less β-galactosidase when treated with a CB1/CB2 agonist and will produce more β-galactosidase when treated with a CB1/CB2 inverse agonist.
The cells were grown in 96-well plates under standard cell culture conditions at 37° C. in a 5% CO2 atmosphere. After 3 days, the media was removed and a test compound in media (wherein the media was supplemented with 2 mM L-glutamine, […] sodium pyruvate, 0.1% low fatty acid FBS (fetal bovine serum) and antibiotics) was added to the cell. The plates were incubated for 30 minutes at 37° C. and the plate cells were then treated with forskolin over a 4-6 hour period, then washed and lysed. The β-galactosidase activity was quantitated using commercially available kit reagents (Promega Corp. Madison, Wis.) and a Vmax Plate Reader (Molecular Devices, Inc).
For cells expressing CRE β-gal and the CB1 receptor, CB1 agonists reduced β-galactosidase activity in a dose-dependent manner and CB1 inverse agonists increased β-galactosidase activity in a dose-dependent manner.
The change in β-galactosidase activity was determined by setting a vehicle treated cell's activity value at 100% and expressing the β-galactosidase activity measured in a corresponding compound treated cell as a percent of the vehicle treated cell activity.
The EC50 and IC50 values for compounds tested were calculated by linear regression and were obtained from studies in which varying compound concentrations were used.
The EC50 values for compounds tested were calculated by linear regression and were obtained from studies in which varying compound concentrations were used. Where an EC50 was not obtained, test results are provided as percent inhibition at a test concentration of 1 μM. ^aTest value in IC50; indicates agonist activity.

[3] = test concentration 10 μM (superscript c)
[4] = test concentration 0.2 μM (superscript a)

T2 sequence (P21554 whole entry): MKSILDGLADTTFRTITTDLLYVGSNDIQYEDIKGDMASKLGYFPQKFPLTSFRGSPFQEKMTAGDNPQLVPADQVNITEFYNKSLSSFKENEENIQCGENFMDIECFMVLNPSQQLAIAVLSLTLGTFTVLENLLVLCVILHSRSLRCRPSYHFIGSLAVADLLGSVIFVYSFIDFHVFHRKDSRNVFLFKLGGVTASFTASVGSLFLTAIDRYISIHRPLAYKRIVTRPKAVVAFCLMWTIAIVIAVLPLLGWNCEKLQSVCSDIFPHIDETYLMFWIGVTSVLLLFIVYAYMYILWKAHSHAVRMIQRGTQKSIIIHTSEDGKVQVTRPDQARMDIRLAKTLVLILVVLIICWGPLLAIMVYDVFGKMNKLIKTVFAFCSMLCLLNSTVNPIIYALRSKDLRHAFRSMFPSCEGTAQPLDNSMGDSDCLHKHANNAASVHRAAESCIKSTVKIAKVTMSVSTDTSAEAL
T1 sequence (P34972 whole entry): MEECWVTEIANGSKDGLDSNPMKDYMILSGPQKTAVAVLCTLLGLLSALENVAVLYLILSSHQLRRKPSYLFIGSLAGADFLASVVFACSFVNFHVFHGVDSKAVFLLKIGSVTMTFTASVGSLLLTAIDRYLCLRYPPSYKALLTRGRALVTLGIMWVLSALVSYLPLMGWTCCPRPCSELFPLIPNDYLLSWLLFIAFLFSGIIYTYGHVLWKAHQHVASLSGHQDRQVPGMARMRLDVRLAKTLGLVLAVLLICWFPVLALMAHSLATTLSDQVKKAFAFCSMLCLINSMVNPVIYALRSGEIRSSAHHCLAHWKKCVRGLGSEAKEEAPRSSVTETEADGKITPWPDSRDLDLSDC

C[C@@H](NC(=O)c1nn(Cc2ccccc2)c2c1CS(=O)(=O)CC2)c1ccccc1 [Cpd 13, 1-benzyl-5,5-dioxo-4,5,6,7-tetrahydro-1H-5λ^6-thiopyrano[4,3-c]pyrazole-3-carboxylic acid [(1R)-1-phenyl-ethyl]-amide]
inhibition at 1 µM (human CB-2 receptor): 55%
inhibition at 1 µM (human CB1 receptor [1]): 38%
EC50 (human CB1 receptor [2]): 7880 nM

C[C@H](NS(=O)(=O)/C=C/c1nn(Cc2ccccc2)c2c1CSCC2)c1ccccc1 [Cpd 3, (E)-2-(1-benzyl-1,4,6,7-tetrahydro-thiopyrano[4-3-c]pyrazol-3-yl)-ethenesulfonic acid [(1S)-1-phenyl-ethyl]-amide]
inhibition at 1 µM (human CB-2 receptor): 74%
inhibition at 1 µM (human CB1 receptor [1]): 23%
inhibition at 1 µM (human CB1 receptor [2]): 17%

C[C@@H](NC(=O)/C=C/c1nn(Cc2ccccc2)c2c1CSCC2)c1ccccc1 [Cpd 33, (2E)-3-(1-benzyl-1,4,6,7-tetrahydro-thiopyrano[4,3-c]pyrazol-3-yl)-N-[(1R)-1-phenyl-ethyl]-acrylamide]
IC50 (human CB-2 receptor): 6800 nM
inhibition at 1 µM (human CB1 receptor [1]): 35%
inhibition at 10 µM (human CB1 receptor [1]; [3]): 9%
inhibition at 1 µM (human CB1 receptor [2]): 24%

CC12CCC(C1)C(C)(C)C2NC(=O)c1nn(Cc2ccccc2)c2c1CSCC2 (centres unmarked) [Cpd 19, 1-benzyl-1,4,6,7-tetrahydro-thiopyrano[4,3-c]pyrazole-3-carboxylic acid (1,3,3-trimethyl-bicyclo[2.2.1]hept-2-yl)-amide]
IC50 (human CB-2 receptor): 0.7 nM
IC50 (human CB1 receptor [1]): 5 nM
IC50 (human CB1 receptor [2]): 30 nM

CC(NS(=O)(=O)/C=C/c1nn(Cc2ccccc2)c2c1C[S+]([O-])CC2)C1CCCCC1 (centres unmarked) [Cpd 25, (E)-2-(1-benzyl-5-oxo-4,5,6,7-tetrahydro-1H-5λ^4-thiopyrano[4,3-c]pyrazol-3-yl)-ethenesulfonic acid (1-cyclohexyl-ethyl)amide]
CB1 binding percent inhibition (human CB1 receptor [1]; test concentration 10 μM (superscript c), 10 µM): 0% and 6%
inhibition at 1 µM (human CB1 receptor [2]): 1%

O=C(N[C@@H]1c2ccccc2C[C@@H]1O)c1nn(-c2ccc(Cl)cc2Cl)c2c1CS(=O)(=O)C/C2=C\c1ccc(F)cc1 [Cpd 69, (7Z)-1-(2,4-dichloro-phenyl)-7-(4-fluoro-benzylidene)-5,5-dioxo-4,5,6,7-tetrahydro-1H-5λ^6-thiopyrano[4,3-c]pyrazole-3-carboxylic acid [(1R,2S)-2-hydroxy-indan-1-yl]-amide]
inhibition at 0.2 µM (human CB-2 receptor; [4]): 10%
IC50 (human CB1 receptor [1]): 23 nM

O=C(NN1CCCCC1)c1nn(-c2ccc(Cl)cc2Cl)c2c1CSC/C2=C\c1ccc(Br)cc1 [Cpd 130, (7Z)-(4-Bromo-benzylidene)-1-(2,4-dichloro-phenyl)-1,4,6,7-tetrahydro-thiopyrano[4,3-c]pyrazole-3-carboxylic acid piperidin-1-ylamide]
inhibition at 0.2 µM (human CB-2 receptor; [4]): 34%
IC50 (human CB1 receptor [1]): 21 nM

C[C@@H](NC(=O)/C=C/c1nn(Cc2ccccc2)c2c1CS(=O)(=O)CC2)c1ccccc1 [Cpd 37, (2E)-3-(1-benzyl-5,5-dioxo-4,5,6,7-tetrahydro-1H-5λ^6-thiopyrano[4,3-c]pyrazol-3-yl)-N-[(1R)-1-phenyl-ethyl]-acrylamide]
inhibition at 10 µM (human CB-2 receptor): 7%
inhibition at 10 µM (human CB1 receptor [1]; [3]): 11%

C[C@@H](NS(=O)(=O)/C=C/c1nn(Cc2ccccc2)c2c1CS(=O)(=O)CC2)C1CCCCC1 [Cpd 14, (E)-2-(1-benzyl-5,5-dioxo-4,5,6,7-tetrahydro-1H-5λ^6-thiopyrano[4,3-c]pyrazol-3-yl)-ethenesulfonic acid [(1R)-1-cyclohexyl-ethyl]-amide]
inhibition at 1 µM (human CB-2 receptor): 0%
inhibition at 1 µM (human CB1 receptor [1]): 0%

O=C(NN1CCCCC1)c1nn(-c2ccc(Cl)cc2Cl)c2c1C[S+]([O-])C/C2=C\c1ccc(F)cc1 (centres unmarked) [Cpd 79, (7Z)-1-(2,4-dichloro-phenyl)-7-(4-fluoro-benzylidene)-5-oxo-4,5,6,7-tetrahydro-1H-5λ^4-thiopyrano[4,3-c]pyrazole-3-carboxylic acid piperidin-1-ylamide]
inhibition at 0.2 µM (human CB-2 receptor; [4]): 10%
IC50 (human CB1 receptor [1]): 160 nM

C[C@@H](NC(=O)/C=C/c1nn(Cc2ccccc2)c2c1C[S+]([O-])CC2)c1ccccc1 (stereo partly drawn) [Cpd 35, (2E)-3-(1-benzyl-5-oxo-4,5,6,7-tetrahydro-1H-5λ^4-thiopyrano[4,3-c]pyrazol-3-yl)-N-[(1R)-1-phenyl-ethyl]-acrylamide]
inhibition at 10 µM (human CB-2 receptor): 28%
inhibition at 10 µM (human CB1 receptor [1]; [3]): 4%

C[C@@H](NC(=O)c1nn(-c2ccc(Cl)cc2)c2c1CSC/C2=C\c1ccc(F)cc1)c1ccccc1 [Cpd 94, (7Z)-1-(4-chloro-phenyl)-7-(4-fluoro-benzylidene)-1,4,6,7-tetrahydro-thiopyrano[4,3-c]pyrazole-3-carboxylic acid [(1R)-1-phenyl-ethyl]-amide]
inhibition at 0.2 µM (human CB-2 receptor): 22%
IC50 (human CB1 receptor [1]): 11 nM

O=C(NN1CCCCCC1)c1nn(-c2ccc(Cl)cc2Cl)c2c1CS(=O)(=O)C/C2=C\c1ccc(F)cc1 [Cpd 107, (7Z)-1-(2,4-dichloro-phenyl)-7-(4-fluoro-benzylidene)-5,5-dioxo-4,5,6,7-tetrahydro-1H-5λ^6-thiopyrano[4,3-c]pyrazole-3-carboxylic acid azepan-1-ylamide]
inhibition at 0.2 µM (human CB-2 receptor; [4]): 23%
inhibition at 0.2 µM (human CB1 receptor [1]): 92%

O=C(NN1CCCCC1)c1nn(-c2ccc(Cl)cc2)c2c1C[S+]([O-])C/C2=C\c1ccc(F)cc1 (centres unmarked) [Cpd 96, (7Z)-1-(4-chloro-phenyl)-7-(4-fluoro-benzylidene)-5-oxo-4,5,6,7-tetrahydro-1H-5λ^4-thiopyrano[4,3-c]pyrazole-3-carboxylic acid piperidin-1-ylamide]
inhibition at 0.2 µM (human CB-2 receptor; [4]): 9%
inhibition at 0.2 µM (human CB1 receptor [1]): 43%

O=C(c1nn(-c2ccc(Cl)cc2Cl)c2c1CS(=O)(=O)C/C2=C\c1ccc(F)cc1)N1CCCCC1 [Cpd 101, (7Z)-[1-(2,4-dichloro-phenyl)-7-(4-fluoro-benzylidene)-5,5-dioxo-4,5,6,7-tetrahydro-1H-5λ^6-thiopyrano[4,3-c]pyrazol-3-yl]-piperidin-1-yl-methanone]
inhibition at 0.2 µM (human CB-2 receptor; [4]): 24%
inhibition at 0.2 µM (human CB1 receptor [1]): 61%

O=C(NN1CC2CCCC2C1)c1c2c(nn1-c1ccc(Cl)cc1Cl)/C(=C/c1ccc(F)cc1)CS(=O)(=O)C2 (centres unmarked) [Cpd 87, (7Z)-2-(2,4-dichloro-phenyl)-7-(4-fluoro-benzylidene)-5,5-dioxo-4,5,6,7-tetrahydro-2H-5λ^6-thiopyrano[4,3-c]pyrazole-3-carboxylic acid (hexahydro-cyclopenta[c]pyrrol-2-yl)-amide]
inhibition at 0.2 µM (human CB-2 receptor; [4]): 4%
IC50 (human CB1 receptor [1]): 18 nM

O=C(NCc1ccccn1)c1nn(-c2ccc(Cl)cc2Cl)c2c1C[S+]([O-])C/C2=C\c1ccc(F)cc1 (centres unmarked) [Cpd 80, (7Z)-1-(2,4-dichloro-phenyl)-7-(4-fluoro-benzylidene)-5-oxo-4,5,6,7-tetrahydro-1H-5λ^4-thiopyrano[4,3-c]pyrazole-3-carboxylic acid (pyridin-2-ylmethyl)-amide]
inhibition at 0.2 µM (human CB-2 receptor; [4]): 2%
inhibition at 0.2 µM (human CB1 receptor [1]): 21%

C[C@H](NS(=O)(=O)/C=C/c1n[nH]c2c1CSCC2Cc1cccc(F)c1)c1ccccc1 (stereo partly drawn) [Cpd 47, (E)-2-[7-(3-fluoro-benzyl)-1,4,6,7-tetrahydro-thiopyrano[4,3-c]pyrazol-3-yl]-ethenesulfonic acid [(1S)-1-phenyl-ethyl]-amide]
inhibition at 0.2 µM (human CB-2 receptor; [4]): 26%
inhibition at 0.2 µM (human CB1 receptor [1]): 24%

— patent publication US7524964B2, “Tetrahydrothiopyrano pyrazole cannabinoid modulators” (Janssen Pharmaceutica NV, priority 2005, dated 2009)
